Measured values as given in patent US12691101B2, “Compound and method for preventing or treating of respiratory diseases comprising the same as an active ingredient” (YONSEI UNIVERSITY, UNIVERSITY - INDUSTRY FOUNDATION (UIF), priority 2019, dated 2026).
pIC50: −log10 of the molar value. Entries after “also recorded” stand apart in the source; their conditions may differ.

Legend:
[1] = molecular target: T1, human wild-type (WT)-pendrin (Homo sapiens, UniProt O43511); assay: Pendrin-mediated Cl^−/HCO3^− exchange activity in CHO-K1 cells; assay type: cell-based; conditions: for inhibition of pendrin Cl^−/HCO3^− exchange activity: CHO-K1 cells, pretreated 10 minutes
T1 construct: expressed in transfected cells
T1 sequence (O43511 1-780): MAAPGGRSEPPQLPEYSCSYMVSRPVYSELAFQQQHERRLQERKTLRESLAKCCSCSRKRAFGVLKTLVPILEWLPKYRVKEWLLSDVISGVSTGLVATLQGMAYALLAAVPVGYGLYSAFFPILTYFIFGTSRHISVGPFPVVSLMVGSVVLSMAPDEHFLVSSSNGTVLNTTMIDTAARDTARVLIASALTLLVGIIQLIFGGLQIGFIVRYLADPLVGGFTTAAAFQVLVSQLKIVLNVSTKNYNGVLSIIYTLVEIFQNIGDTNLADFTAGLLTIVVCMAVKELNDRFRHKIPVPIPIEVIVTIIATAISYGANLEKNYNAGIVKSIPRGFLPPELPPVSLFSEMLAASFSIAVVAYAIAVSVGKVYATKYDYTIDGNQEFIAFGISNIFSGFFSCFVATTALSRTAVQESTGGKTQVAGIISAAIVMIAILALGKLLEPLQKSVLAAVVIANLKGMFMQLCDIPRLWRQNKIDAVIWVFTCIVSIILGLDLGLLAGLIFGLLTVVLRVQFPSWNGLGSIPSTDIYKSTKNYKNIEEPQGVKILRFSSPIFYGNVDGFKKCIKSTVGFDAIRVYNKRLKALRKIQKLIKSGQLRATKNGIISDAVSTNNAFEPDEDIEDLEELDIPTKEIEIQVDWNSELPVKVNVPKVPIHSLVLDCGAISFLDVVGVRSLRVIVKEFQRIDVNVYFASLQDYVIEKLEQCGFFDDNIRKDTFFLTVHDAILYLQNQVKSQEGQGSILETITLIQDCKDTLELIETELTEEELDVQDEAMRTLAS
Protocol: For measurement of Cl^−/HCO3^− exchange activity, intracellular pH (pHi) was measured in WT-pendrin expressing CHO-K1 and HNE cells using pH sensor SNARF5-AM (Molecular Probes). The cells were treated with 5 μM SNARF5-AM for 30 minutes, and then were equipped in a perfusion chamber on the stage of a reverse fluorescence microscope (Nikon, Tokyo, Japan) equipped with a cooled charge-coupled device camera (Zyla sCMOS), image acquisition and analysis software (Meta Imaging Series 7.7). The cells were perfused with a HCO3^− buffer solution containing 120 NaCl, 5 KCl, 1 MgCl2, 1 CaCl2, 10 D-glucose, 5 HEPES, and 25 NaHCO3 (pH 7.4) (mM). To measure the Cl^−/HCO3^− exchange activity, the HCO3^− buffer solution was changed to Cl^−-free HCO3^− buffer solution. When external Cl^−-free HCO3^− buffer solution is applied, the outflow of Cl^− and inflow of HCO3^− are increased by pendrin. To maintain the pH of the HCO3^− buffer solution, the solution was continuously gas treated with 95% O2 and 5% CO2. SNARF5 fluorescence was recorded at 515±10 nm of the excitation wavelength and 640±10 nm of the emission wavelength, and intracellular pH calibration was performed with a solution including 145 mM KCl, 10 mM HEPES and […] nigericin having a calibrated pH to 6.2-7.6.
When the CHO-K1 cells overexpressing WT-pendrin and iodine sensitive YFP are treated with a high concentration Cl^− solution, Cl^− moves to the cells and HCO3^− moves outside of the cells, and this change induces acidification of intracellular pH with reduction of YFP fluorescence.

[2] = molecular target: T2, human AN01 (Homo sapiens, UniProt Q5XXA6, DEL476-501); assay: AN01 chloride channel activity in FRT cells; assay type: cell-based
T2 construct: expressed in transfected cells; host or cells: FRT cells
T2 sequence (Q5XXA6 with tags, fused parts or gaps isoform Q5XXA6-5 DEL539-564): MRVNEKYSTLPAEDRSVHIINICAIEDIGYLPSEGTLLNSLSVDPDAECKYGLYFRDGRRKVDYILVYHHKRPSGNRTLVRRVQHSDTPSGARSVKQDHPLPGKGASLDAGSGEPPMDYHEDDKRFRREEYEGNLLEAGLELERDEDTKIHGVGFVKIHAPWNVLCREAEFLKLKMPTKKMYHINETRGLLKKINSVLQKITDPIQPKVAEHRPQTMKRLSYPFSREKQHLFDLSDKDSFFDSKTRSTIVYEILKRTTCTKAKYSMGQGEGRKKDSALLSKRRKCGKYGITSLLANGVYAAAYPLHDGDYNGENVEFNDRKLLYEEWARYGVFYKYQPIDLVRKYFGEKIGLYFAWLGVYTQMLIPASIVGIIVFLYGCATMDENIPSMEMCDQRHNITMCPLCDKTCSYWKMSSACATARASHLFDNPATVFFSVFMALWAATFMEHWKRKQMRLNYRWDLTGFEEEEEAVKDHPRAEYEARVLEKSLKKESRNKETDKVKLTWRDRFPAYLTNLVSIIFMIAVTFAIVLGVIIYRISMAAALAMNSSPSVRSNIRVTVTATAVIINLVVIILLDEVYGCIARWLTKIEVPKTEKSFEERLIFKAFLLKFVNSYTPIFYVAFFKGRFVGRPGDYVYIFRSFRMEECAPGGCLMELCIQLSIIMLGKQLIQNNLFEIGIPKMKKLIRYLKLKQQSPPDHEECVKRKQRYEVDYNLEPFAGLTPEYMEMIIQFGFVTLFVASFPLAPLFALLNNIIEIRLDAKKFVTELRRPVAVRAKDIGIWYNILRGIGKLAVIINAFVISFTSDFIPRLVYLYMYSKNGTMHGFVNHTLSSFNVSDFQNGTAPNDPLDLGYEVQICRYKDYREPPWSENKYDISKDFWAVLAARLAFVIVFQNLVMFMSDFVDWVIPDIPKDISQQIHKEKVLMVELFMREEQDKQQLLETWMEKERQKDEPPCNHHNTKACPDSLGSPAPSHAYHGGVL
Protocol: (A) The inhibition of mouse pendrin (mPDS)-mediated Cl^−/I^− exchange activity by F56 was measured in CHO-K1 cells (mean±S.E., n=5). The indicated concentration of F56 was pretreated for 10 minutes. (B) Summary of dose-response for inhibition of the human pendrin (hPDS)-mediated (closed circle, FIG. (a), C) and mPDS-mediated (open circle) Cl^−/I^− exchange activity. (C-F) Representative traces of intracellular pH in CHO-K1 cells expressing SLC26A3, SLC26A6, SLC26A7 and SLC26A9 were shown. The application of Cl^− free solution induced intracellular alkalization by Cl^−/HCO3^− exchange. The indicated concentration of F56 was pretreated for 10 minutes. (G) the effect of F56 (100 μM) on the CFTR chloride channel activity was measured in FRT cells expressing human CFTR. […] (H) The effect of F56 (100 μM) on the AN01 chloride channel activity was measured in FRT cells expressing human AN01. […] (I) The effect of F56 on the hERG (Kv11.1) potassium channel activity was measured in HEK293T cells expressing human Kv11.1 (mean±S.E., n=4). […] (J) The effect of F56 on the 5-HT2A channel activity was measured in FRT cells expressing human 5-HT2A (mean±S.E., n=4). […]
(A) The effect of F10 (30 μM) on the CFTR channel was measured in FRT cells expressing human CFTR and mutant YFP. […] (B) The effect of F10 (30 μM) on the AN01 channel activity was measured in FRT cells expressing human and mutant YFP. […]

pIC50 ([1]; FIG. 4(a), read-out: 50% inhibition of Cl^−/HCO3^− exchange activity)	effect on AN01 activity ([2]; 100 μM, FRT cells, ATP-activated)	Compound	inhibition of pendrin Cl^−/HCO3^− exchange activity [1]	effect on AN01 channel activity ([2]; 30 μM, FRT cells with mutant YFP)
		CC(C)(C)c1ccc(C2=NC(=Cc3ccc[nH]3)C(=O)O2)cc1 [F10, 4-((1H-pyrrol-2-yl)methylene)-2-(4-(tert-butyl)phenyl)oxazol-5 (4H)-one]	strongly inhibit	did not show any effect
~5.00	not affected	CC(C)(C)c1ccc(C2=NC(=Cc3cccs3)C(=O)O2)cc1 [F56, 2-(4-(tert-butyl)phenyl)-4-(thiophen-2-ylmethylene)oxazol-5(4H)-one]	significantly inhibited; also recorded: strongly inhibited	
